Measurements as given in ChEMBL document CHEMBL1201862, “PubChem BioAssay data set” (2004).
Activity calls are given as the source filed them.

Key:
cells [1] = format: functional, cell-based
cells [2] = format: functional, cell-based; remark: listed apart in the source
Cytochrome P450 3A4 = Cytochrome P450 3A4 (Homo sapiens, UniProt P08684); conditions: Potency;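 note: confirmatory qHTS run detecting inhibitors and substrates of CYP3A4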
Leucine aminopeptidase = target: T1, Leucine aminopeptidase (Plasmodium falciparum 3D7, UniProt Q8IL11); assay: P. falciparum M17LAP inhibitors, primary screen, biochemical, fluorogenic H-Leu-NHMec substrate, 1536-well (AID 1619); format: functional
T1 sequence (Q8IL11 whole entry): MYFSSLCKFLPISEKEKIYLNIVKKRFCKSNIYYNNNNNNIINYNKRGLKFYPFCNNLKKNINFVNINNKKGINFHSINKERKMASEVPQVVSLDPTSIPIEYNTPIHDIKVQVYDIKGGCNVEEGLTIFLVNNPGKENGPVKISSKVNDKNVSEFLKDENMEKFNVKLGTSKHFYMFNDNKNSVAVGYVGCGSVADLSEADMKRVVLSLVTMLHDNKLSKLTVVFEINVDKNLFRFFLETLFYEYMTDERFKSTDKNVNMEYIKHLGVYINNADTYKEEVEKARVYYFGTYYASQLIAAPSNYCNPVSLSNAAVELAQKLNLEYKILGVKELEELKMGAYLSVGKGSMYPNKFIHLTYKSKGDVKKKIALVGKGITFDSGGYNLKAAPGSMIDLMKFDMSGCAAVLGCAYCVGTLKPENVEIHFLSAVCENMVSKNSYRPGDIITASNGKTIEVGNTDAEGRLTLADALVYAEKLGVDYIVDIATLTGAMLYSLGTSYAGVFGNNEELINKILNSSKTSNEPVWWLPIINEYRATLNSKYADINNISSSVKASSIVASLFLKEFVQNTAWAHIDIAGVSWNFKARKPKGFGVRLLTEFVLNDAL

cells [3] = format: functional, cell-based; remark: listed apart in the source
[4] = target: T2, Trace amine-associated receptor 1 (Homo sapiens, UniProt Q96RJ0); assay: Fluorescence-based cell-based high throughput dose response assay to identify agonists of the human trace amine associated receptor 1 (TAAR1).; format: functional
T2 sequence (Q96RJ0 whole entry): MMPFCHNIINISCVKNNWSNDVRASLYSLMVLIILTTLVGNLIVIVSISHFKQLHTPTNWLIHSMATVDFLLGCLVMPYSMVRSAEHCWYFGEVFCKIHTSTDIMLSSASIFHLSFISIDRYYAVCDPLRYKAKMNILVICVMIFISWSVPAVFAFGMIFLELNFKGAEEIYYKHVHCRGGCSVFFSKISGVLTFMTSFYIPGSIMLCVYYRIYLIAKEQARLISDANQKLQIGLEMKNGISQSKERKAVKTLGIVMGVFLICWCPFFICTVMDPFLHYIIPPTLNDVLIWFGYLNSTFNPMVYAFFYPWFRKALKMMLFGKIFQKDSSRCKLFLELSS

[5] = target: T3, Mannose-6-phosphate isomerase (Homo sapiens, UniProt P34949); assay: human PMI inhibitors, high substrate, primary screen, biochemical, fluorescence intensity, high mannose 6-phosphate (AID 1220)
T3 sequence (P34949 whole entry): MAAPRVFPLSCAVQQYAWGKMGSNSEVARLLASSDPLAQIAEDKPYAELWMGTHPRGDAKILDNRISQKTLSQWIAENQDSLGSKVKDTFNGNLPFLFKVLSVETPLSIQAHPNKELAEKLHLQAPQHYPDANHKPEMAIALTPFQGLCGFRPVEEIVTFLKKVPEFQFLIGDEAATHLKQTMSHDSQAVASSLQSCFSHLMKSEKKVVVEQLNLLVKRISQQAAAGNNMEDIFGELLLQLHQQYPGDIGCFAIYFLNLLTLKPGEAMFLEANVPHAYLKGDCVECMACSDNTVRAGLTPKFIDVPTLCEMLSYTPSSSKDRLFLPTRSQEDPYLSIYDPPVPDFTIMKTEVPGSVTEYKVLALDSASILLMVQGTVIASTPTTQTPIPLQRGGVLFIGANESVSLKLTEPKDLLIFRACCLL

cells [6] = format: functional, cell-based; remark: listed apart in the source
[7] = target: T2, Trace amine-associated receptor 1; assay: Counterscreen for agonists of the human trace amine associated receptor 1 (hTAAR1): Fluorescence-based cell-based high throughput dose response assay to identify hTAAR1 agonist that also desensitize TAAR1 receptor response.; format: functional
[8] = target: T4, Ubiquitin-conjugating enzyme E2 N (Homo sapiens, UniProt P61088); format: functional;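 note: Dose-response confirmation in a TR-FRET assay detecting UBC13-driven polyubiquitin chain formation, inhibition measured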
T4 sequence (P61088 whole entry): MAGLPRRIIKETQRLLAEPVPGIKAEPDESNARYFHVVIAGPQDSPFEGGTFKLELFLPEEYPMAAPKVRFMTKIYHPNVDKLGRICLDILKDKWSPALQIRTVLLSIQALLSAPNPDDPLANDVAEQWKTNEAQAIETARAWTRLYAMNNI

H9c2 = assay: cells; format: functional, cell-based; conditions: Rattus norvegicus, H9c2, Myocardium;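 note: confirmatory concentration-response retest of ultra-high-throughput screening hits for modulation of myocardial damage; cell death induced by hydrogen peroxide oxidative stress; compound pretreatment for 60 min then peroxide exposure for 2 h; potency is for protecting the cells against peroxide damage rather than for killing them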
Protein RecA = target: T5, Protein RecA (Mycobacterium tuberculosis, UniProt P9WHJ3); assay: Fluorescence Cell-Free Homogeneous Dose Retest to Identify Inhibitors of RecA-Intein Splicing Activity. [Related pubchem assays (depositor defined):AID2097, AID2223, AID489010, AID492950]; format: functional
T5 sequence (P9WHJ3 whole entry): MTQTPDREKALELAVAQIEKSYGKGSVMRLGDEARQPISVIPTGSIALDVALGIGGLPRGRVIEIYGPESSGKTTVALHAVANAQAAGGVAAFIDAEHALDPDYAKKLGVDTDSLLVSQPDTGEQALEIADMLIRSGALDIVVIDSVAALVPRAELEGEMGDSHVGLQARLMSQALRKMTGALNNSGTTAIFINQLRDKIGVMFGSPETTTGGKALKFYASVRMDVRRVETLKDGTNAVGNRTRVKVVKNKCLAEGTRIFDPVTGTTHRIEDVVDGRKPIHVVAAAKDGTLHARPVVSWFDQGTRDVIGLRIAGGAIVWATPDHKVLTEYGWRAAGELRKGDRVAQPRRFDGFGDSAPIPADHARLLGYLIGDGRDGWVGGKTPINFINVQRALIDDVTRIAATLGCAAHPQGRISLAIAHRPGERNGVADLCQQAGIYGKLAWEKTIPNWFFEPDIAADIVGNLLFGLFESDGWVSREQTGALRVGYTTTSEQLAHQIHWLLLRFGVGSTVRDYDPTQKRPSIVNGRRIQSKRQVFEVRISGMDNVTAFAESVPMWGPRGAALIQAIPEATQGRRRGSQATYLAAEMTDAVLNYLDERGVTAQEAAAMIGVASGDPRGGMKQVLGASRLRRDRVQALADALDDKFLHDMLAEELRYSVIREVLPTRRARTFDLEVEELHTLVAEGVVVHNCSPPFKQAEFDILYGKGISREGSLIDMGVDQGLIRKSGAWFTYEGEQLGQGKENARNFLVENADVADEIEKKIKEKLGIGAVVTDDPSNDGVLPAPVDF

[9] = target: T6, Replicative DNA helicase DnaB (Mycobacterium tuberculosis, UniProt P9WMR3); assay: DnaB intein splicing inhibitors, dose response, biochemical, cell-free fluorescence (AID 449749); format: functional
T6 sequence (P9WMR3 whole entry): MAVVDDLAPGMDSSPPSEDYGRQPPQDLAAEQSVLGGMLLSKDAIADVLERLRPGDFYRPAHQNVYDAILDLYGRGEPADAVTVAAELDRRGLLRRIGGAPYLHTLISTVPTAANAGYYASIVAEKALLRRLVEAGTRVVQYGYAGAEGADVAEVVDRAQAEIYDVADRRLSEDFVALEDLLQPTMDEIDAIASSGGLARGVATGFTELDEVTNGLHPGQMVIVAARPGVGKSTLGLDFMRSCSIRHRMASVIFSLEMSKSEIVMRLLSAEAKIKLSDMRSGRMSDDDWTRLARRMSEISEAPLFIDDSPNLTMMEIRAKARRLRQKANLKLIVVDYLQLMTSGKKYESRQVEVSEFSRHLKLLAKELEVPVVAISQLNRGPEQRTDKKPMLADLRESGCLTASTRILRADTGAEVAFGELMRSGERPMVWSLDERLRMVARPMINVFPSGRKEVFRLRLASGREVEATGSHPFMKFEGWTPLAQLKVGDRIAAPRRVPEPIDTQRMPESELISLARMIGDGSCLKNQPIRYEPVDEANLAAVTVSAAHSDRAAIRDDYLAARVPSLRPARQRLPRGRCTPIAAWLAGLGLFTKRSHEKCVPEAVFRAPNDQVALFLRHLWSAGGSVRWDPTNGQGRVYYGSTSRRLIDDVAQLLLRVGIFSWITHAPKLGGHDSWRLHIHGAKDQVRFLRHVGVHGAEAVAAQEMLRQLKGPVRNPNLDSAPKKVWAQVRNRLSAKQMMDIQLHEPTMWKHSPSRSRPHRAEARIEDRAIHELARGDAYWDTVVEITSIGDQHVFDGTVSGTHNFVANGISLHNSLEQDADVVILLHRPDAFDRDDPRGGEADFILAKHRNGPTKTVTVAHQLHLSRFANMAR

Genome polyprotein = Genome polyprotein (dengue virus type 2, UniProt P29990); assay: Dengue-2 NS5 methyltransferase inhibitors, primary screen, biochemical, confirmation dose response (AID 588689); format: functional
Genome polyprotein, sequence (P29990 2492-3391 limits assumed): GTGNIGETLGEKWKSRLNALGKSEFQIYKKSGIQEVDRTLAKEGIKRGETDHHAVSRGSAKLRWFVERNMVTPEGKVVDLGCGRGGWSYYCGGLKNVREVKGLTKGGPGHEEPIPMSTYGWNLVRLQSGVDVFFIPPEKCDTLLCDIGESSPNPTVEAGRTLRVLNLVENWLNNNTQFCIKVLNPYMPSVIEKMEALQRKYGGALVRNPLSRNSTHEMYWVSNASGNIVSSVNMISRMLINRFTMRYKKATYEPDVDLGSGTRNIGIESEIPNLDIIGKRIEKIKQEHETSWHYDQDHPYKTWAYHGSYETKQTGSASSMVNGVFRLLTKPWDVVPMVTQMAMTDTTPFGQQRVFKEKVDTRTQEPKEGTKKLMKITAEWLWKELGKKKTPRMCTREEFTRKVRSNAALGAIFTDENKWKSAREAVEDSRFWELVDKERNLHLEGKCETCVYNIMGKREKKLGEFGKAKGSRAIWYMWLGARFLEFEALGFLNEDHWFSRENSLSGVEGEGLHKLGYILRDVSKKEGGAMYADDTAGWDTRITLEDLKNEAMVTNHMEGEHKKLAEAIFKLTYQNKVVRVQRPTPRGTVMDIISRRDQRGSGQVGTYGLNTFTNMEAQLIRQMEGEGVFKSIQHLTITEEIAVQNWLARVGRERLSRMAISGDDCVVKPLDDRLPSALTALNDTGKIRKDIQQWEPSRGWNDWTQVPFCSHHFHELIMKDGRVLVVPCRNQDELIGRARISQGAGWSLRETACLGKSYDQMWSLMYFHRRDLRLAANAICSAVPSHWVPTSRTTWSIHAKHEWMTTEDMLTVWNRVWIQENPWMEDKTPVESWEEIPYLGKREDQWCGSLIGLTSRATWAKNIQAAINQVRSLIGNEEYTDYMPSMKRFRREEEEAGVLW

[10] = Luminescence Cell-Based Dose Response HTS to Identify Activators of Luciferase Translation or Activity in H4 […] Cells. [Related pubchem assays: 1829 (Project Summary), 1814 (Primary HTS)]; format: functional
[11] = target: Luciferin 4-monooxygenase (Photinus pyralis, UniProt P08659); assay: firefly luciferase enzyme inhibitors, dose response, biochemical, luminescence (AID 1891)
Luciferin 4-monooxygenase, sequence (P08659 whole entry): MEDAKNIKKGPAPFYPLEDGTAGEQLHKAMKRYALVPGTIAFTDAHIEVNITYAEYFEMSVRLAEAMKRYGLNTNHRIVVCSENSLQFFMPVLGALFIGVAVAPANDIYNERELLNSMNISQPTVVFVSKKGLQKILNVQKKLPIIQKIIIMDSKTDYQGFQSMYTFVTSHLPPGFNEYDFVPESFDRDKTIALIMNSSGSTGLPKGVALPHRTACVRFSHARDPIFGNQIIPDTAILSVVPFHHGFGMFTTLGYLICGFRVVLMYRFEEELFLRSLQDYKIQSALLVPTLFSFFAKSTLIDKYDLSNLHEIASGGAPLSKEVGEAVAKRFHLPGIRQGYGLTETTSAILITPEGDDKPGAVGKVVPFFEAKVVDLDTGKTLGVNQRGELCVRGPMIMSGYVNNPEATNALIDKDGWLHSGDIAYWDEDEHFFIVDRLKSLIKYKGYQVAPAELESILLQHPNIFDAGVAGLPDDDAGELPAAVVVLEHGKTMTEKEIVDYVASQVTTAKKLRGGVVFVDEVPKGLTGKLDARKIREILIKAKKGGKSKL

[12] = Luminescence Cell-Based Dose Confirmation HTS to Identify Inhibitors of Platelet Dense Granule Release. [Related pubchem assays: 1663 (Primary HTS), 1678 (Summary of Project)]; format: functional
[13] = Luminescence Cell-Based Dose Confirmation HTS to Identify Activators of 5'UTR Stem-Loop Driven Alpha-Synuclein mRNA Translation in H4 Neuroglioblastoma Cells. [Related pubchem assays: 1829 (Project Summary), 1814 (Primary HTS)]; format: functional
H4 = assay: Luminescence Cell-Based Dose Response HTS to Identify Activators of 5'UTR Stem-Loop Driven Prion Protein mRNA Translation in H4 Neuroglioblastoma Cells. [Related pubchem assays: 1829 (Project Summary), 1814 (Primary HTS)]; format: functional; conditions: Homo sapiens
[14] = cytotoxicity toward NIH3T3 fibroblasts, dose response, counter-screen, cell-based, ATP luminescence, mouse fibroblasts (AID 2010); format: functional;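 note: cells exposed to compound for about 90 hours before reading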
INS1 = assay: beta cell apoptosis inhibitors, cytokine rescue, dose response, luminescence, retest (AID 449756); format: functional, cell-based; conditions: Rattus norvegicus;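 note: cell death triggered by IL-1 beta plus TNF-alpha plus IFN-gamma mixture; protective hits raise ATP signal compared with cytokine alone wells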
[15] = inhibitors of intracellular T. cruzi replication, confirmation, NIH3T3 host cells, beta-gal luminescence (AID 2044); format: functional, cell-based;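 note: intracellular parasites grown in NIH/3T3 mouse fibroblasts as host cells; luminescent beta-galactosidase reporter signal from transgenic T. cruzi replicating inside host cells; inhibitors lower the luminescence signal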

Cytochrome P450 3A4, sequence (P08684 whole entry): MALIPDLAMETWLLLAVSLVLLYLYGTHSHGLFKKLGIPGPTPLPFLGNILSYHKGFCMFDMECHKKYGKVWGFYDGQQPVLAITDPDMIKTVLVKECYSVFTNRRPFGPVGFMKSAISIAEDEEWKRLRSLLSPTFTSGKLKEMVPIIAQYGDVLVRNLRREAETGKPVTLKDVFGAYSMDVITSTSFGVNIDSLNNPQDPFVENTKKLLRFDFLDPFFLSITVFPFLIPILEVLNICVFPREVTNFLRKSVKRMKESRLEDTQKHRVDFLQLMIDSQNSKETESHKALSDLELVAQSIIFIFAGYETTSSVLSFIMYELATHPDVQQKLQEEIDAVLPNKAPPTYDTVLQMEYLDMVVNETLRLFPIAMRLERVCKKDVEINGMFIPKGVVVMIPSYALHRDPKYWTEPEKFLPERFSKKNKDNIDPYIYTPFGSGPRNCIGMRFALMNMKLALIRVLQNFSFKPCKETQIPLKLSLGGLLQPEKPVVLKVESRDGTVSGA

O=C1OCc2cc(NC(=O)C34CC5CC(CC(C5)C3)C4)ccc21
EC50 (cells [1]): > 350 µM (not active) | EC50 (cells [2]): > 350 µM (not active)

O=C(/C=C/c1ccccc1)OC1CC(O)C2(O)C=CO[C@@H](OC3OC(CO)C(O)C(O)C3O)C12 (stereo partly specified)
AC50 (Cytochrome P450 3A4): 3.98 µM (inconclusive)

CCOc1ccc(NC(=O)C2CCN(S(=O)(=O)c3ccc4c(c3)N(C(C)=O)CCO4)CC2)cc1
EC50 (cells [1]): > 350 µM (not active) | EC50 (cells [2]): > 350 µM (not active)

CC(C)NC(=O)c1cc(C(=O)c2cc(Cl)ccc2O)coc1=N
IC50 (Leucine aminopeptidase): 2.15 µM (active)

O=C(O)c1ccc(COc2ccc3ccccc3c2/C=C2/NC(=O)N(c3ccccc3)C2=O)cc1
IC50 (Leucine aminopeptidase): 24.6 µM (active)

COc1ccc2cc3cc(C(=O)N4CCN(c5ccccn5)CC4)oc3nc2c1
EC50 (cells [1]): > 350 µM (not active) | EC50 (cells [2]): > 350 µM (not active)

CCCCC#CC1C=CC(Oc2cc(OC)c(OC)c(OC)c2)C(CO)O1 (stereo unspecified)
AC50 (Cytochrome P450 3A4): 5.01 µM (inconclusive)

N#Cc1cccc(NC(=O)CN2NS(=O)(=O)c3ccccc3C2=O)c1
IC50 (Leucine aminopeptidase): 14.9 µM (active)

Cc1cc(O)c(C(C)(C)C)cc1Sc1cc(C(C)(C)C)c(O)cc1C
AC50 (Cytochrome P450 3A4): 3.98 µM (inconclusive)

CCNC(=O)NC(=O)C(C)Sc1ccc2c(c1)OCCO2 (stereo unspecified)
IC50 (Leucine aminopeptidase): 7.93 µM (active)

Fc1ccc(CSc2ccc(-c3ccco3)nn2)cc1
EC50 (cells [1]): 7.7 µM (active) | EC50 (cells [2]): > 350 µM (not active)

CCOc1cc2c(C#N)c(N3CCNCC3)nc(N)c2c(N)n1
EC50 (cells [3]): > 29.9 µM (inactive) | EC50 [4]: 5.69 µM (active) | IC50 [5]: > 50 µM (not active) | IC50 (cells [6]): > 29.9 µM (inactive) | IC50 [7]: 8.23 µM (active) | IC50 [8]: > 20 µM (inactive)

CCC(=O)OCCNc1cc(SCCC(=O)OC)c2nonc2c1[N+](=O)[O-]
IC50 [5]: > 50 µM (not active) | IC50 (H9c2): 14.5 µM (active) | EC50 (Protein RecA): 5.12 µM (active) | AC50 [9]: 116 µM (active)

O=C(O)CC1S/C(=N/N=C/c2ccc(-c3ccccc3[N+](=O)[O-])o2)NC1=O (stereo unspecified)
IC50 [5]: > 50 µM (not active) | EC50 (Protein RecA): 4.31 µM (active) | IC50 (Genome polyprotein): 89 µM (active) | AC50 [9]: 12.1 µM (active)

Cc1cc(O)nc(N=N/C(=N/Nc2ccc(O)cc2)c2ccccc2)n1
EC50 [10]: 13.1 µM (active) | EC50 [11]: 0.763 µM (active) | EC50 [12]: 4.42 µM (active) | EC50 (cells [1]): 8.27 µM (active) | EC50 [13]: 11.6 µM (active) | EC50 (cells [2]): 102 µM (active) | EC50 (H4): 16.4 µM (active)

O=C(N/N=C/c1cc([N+](=O)[O-])ccc1O)c1cccc2ccccc12
EC50 [14]: > 60 µM (not active) | EC50 (cells [1]): > 350 µM (not active) | AC50 (INS1): 4.2 µM (active) | EC50 (cells [2]): 20.3 µM (active) | EC50 [15]: 2.36 µM (active)
